pIC50: −log10 of the molar value.
Target: T1, CCR1 (Homo sapiens, UniProt P32246)
T1 construct: host or cells: Non-adherent cells
T1 sequence (P32246 1-355): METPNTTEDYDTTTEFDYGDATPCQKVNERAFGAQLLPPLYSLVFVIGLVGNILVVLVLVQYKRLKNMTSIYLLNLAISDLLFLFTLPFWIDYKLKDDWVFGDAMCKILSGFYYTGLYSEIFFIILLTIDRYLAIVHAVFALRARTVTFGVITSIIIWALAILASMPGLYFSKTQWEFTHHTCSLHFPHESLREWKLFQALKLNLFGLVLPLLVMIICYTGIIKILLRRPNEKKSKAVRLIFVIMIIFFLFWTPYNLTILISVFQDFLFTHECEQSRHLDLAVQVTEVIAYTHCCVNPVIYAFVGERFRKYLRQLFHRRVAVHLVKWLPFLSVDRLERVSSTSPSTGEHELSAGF
Experiment: functional cellular assay measuring calcium flux in CCR1 transfected cells (block of CCR1/MIP-1α interaction)
Format: cell-based
Conditions: cells stably expressing recombinant CCR1 and G-alpha-16, MIP-1alpha added at EC80
Protocol: Compounds are assessed for the ability to block the interaction of CCR1 and MIP-1α in a functional cellular assay measuring calcium flux in CCR1 transfected cells.
Non-adherent cells purchased from Chemicon Corporation (HTS005C), stably expressing recombinant CCR1 and G-alpha-16 are grown in RPMI 1640 medium (Mediatech 10-080-CM) supplemented with 10% FBS, 0.4 mg/mL Geneticin and penicillin/streptomycin. On the day of the assay, the cells are loaded with Calcium 4 dye (Molecular Devices R7448) with Probenecid (Invitrogen P346400) at 8E5 cells/mL for 1 hour at room temperature. After 1 hour, they are seeded in a 384-well tissue culture-treated plate at a density of 20,000 cells/well. Appropriately diluted test compound is added to the well to achieve a top concentration of 3,000 nM (diluted 4-fold with 10 doses total). The final concentration of DMSO is 1%. The buffer is HBSS (Invitrogen 14025) with 20 mM HEPES at pH 7.4. The cells incubate 30 minutes at 37 C and then 30 minutes at room temperature. The plates are transferred to the […] FDSS6000 where MIP-1alpha in 1% BSA is added at the EC80 final concentration. All plates must be read within 4 hours of the start of dye-loading. Wells +/− MIP-1alpha containing diluted DMSO instead of compound serve as the controls. Data are analyzed using Activity Base software.

Compound | pIC50
CC(C)(C)OC(=O)NCc1ccnc(C2(NC(=O)c3cncc4c3cnn4-c3ccc(F)cc3)CC2)c1 [[2-(1-{[1-(4-Fluoro-phenyl)-1H-pyrazolo[3,4-c]pyridine-4-carbonyl]-amino}-cyclopropyl)-pyridin-4-ylmethyl]-carbamic acid tert-butyl ester] | 6.55
COC(=O)CNC(=O)c1cccc(C2(NC(=O)c3cncc4c3cnn4-c3ccc(F)cc3)CC2)c1 [[3-(1-{[1-(4-Fluoro-phenyl)-1H-pyrazolo[3,4-c]pyridine-4-carbonyl]-amino}-cyclopropyl)-benzoylamino]-acetic acid methyl ester] | 8.30
CC(C)(C)OC(=O)NCc1ccc(C2(NC(=O)c3cncc4c3cnn4-c3ccc(F)cc3)CC2)nc1 [[6-(1-{[1-(4-Fluoro-phenyl)-1H-pyrazolo[3,4-c]pyridine-4-carbonyl]-amino}-cyclopropyl)-pyridin-3-ylmethyl]-carbamic acid tert-butyl ester] | 7.09

Reference: patent US9056858B2, “Indazole and pyrazolopyridine compounds as CCR1 receptor antagonists” (Boehringer Ingelheim International GmbH, priority 2009, dated 2015)
